From ChEMBL document CHEMBL5104175, “Scaffold hopping from indoles to indazoles yields dual MCL-1/BCL-2 inhibitors from MCL-1 selective leads” (RSC Med Chem, 2022) come the findings set out here.

Assay [1] has as its target Induced myeloid leukemia cell differentiation protein Mcl-1 (Homo sapiens, UniProt Q07820). In words: Inhibition of MCL-1 (unknown origin) by fluorescence polarization competition assay. A general note: Polarisation of emitted light reports the rotation of a fluorescent probe.
Assay [2] has as its target Apoptosis regulator Bcl-2 (Homo sapiens, UniProt P10415). Nature of the assay: Inhibition of BCL-2 (unknown origin) by fluorescence polarization competition assay.
Assay [3] concerns the target Bcl-2-like protein 1 (Homo sapiens, UniProt Q07817). Nature of the assay: Inhibition of BCL-xL (unknown origin) by fluorescence polarization competition assay.

Each structure is given as a SMILES string.

Chain of Induced myeloid leukemia cell differentiation protein Mcl-1 (Q07820 whole entry): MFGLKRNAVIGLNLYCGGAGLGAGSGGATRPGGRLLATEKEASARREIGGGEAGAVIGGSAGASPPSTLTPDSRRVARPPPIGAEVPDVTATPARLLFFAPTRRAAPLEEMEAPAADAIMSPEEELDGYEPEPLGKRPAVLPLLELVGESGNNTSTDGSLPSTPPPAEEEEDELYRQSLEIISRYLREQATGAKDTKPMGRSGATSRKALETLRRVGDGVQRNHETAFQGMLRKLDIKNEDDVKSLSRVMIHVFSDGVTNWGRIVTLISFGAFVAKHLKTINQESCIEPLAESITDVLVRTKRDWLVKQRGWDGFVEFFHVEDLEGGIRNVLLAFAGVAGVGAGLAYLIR
Chain of Bcl-2-like protein 1 (Q07817 whole entry): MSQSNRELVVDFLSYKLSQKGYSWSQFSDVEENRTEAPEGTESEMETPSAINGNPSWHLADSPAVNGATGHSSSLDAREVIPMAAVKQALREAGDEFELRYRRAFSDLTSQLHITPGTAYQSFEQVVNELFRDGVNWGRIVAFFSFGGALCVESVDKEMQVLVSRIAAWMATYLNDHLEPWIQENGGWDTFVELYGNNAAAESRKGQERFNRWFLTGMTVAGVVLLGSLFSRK
Chain of Apoptosis regulator Bcl-2 (P10415 whole entry): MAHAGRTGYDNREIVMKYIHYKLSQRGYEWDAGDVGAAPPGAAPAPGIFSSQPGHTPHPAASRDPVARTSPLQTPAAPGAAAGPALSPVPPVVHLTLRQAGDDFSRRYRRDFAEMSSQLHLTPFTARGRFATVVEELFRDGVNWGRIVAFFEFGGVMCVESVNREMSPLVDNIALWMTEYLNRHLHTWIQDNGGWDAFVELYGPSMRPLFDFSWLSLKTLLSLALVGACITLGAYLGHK

As to `Cc1cc(Oc2ccc(Cn3nc4ccc(Cl)cc4c3C(=O)NS(=O)(=O)c3ccc(NCCN4CCOCC4)c([N+](=O)[O-])c3)cc2)cc(C)c1Cl`, the Ki (commonly the equilibrium dissociation constant of an inhibitor or competing ligand from its target) in assay [1] was found to be 1.61 µM; in assay [2] it was 0.42 µM.

Turning to `Cc1cc(Oc2ccc(Cn3nc4ccc(Cl)cc4c3C(=O)NS(=O)(=O)c3ccc([N+](=O)[O-])c(NCCc4ccco4)c3)cc2)cc(C)c1Cl`, the inhibition constant Ki in assay [1] was 2.16 µM; in assay [2] it was 0.84 µM; in assay [3] it was above 10 µM.

Consider `Cc1cc(Oc2ccc(Cn3nc4ccc(Cl)cc4c3C(=O)NS(=O)(=O)c3ccc([N+](=O)[O-])c(N4CCOCC4)c3)cc2)cc(C)c1Cl`, for which the Ki in assay [1] came out at 2.3 µM; in assay [2], 0.9 µM; in assay [3], 6.66 µM.

With `Cc1cc(Oc2ccc(Cn3nc4ccc(Cl)cc4c3C(=O)NS(=O)(=O)c3ccc([N+](=O)[O-])c(NCc4ccn(C)n4)c3)cc2)cc(C)c1Cl`, the Ki in assay [1] was found to be 1.95 µM; in assay [2] it was 0.71 µM; in assay [3], 7.41 µM.

`Cc1cc(Oc2ccc(Cn3nc(C(=O)O)c4cc(Cl)ccc43)cc2)cc(C)c1Cl` registered a Ki in assay [1] of 2.28 µM.

`Cc1cc(Oc2ccc(Cn3nc4ccc(Cl)cc4c3C(=O)NS(=O)(=O)c3ccc([N+](=O)[O-])c(NCCc4ccncc4)c3)cc2)cc(C)c1Cl`: the Ki in assay [1] was 1.42 µM; in assay [2] it was 0.77 µM.

Turning to `Cc1cc(Oc2ccc(Cn3nc4ccc(Cl)cc4c3C(=O)NS(=O)(=O)c3ccc(NCCc4cccnc4)c([N+](=O)[O-])c3)cc2)cc(C)c1Cl`, the Ki in assay [1] was 1.46 µM; in assay [2] it was 0.46 µM; in assay [3] it was above 10 µM.

Turning to `Cc1cc(Oc2ccc(Cn3nc4ccc(Cl)cc4c3C(=O)NS(=O)(=O)c3ccc(Cl)cc3)cc2)cc(C)c1Cl`, the results for the Ki in assay [1], in assay [2] and in assay [3] were 1.2 µM, 0.51 µM and above 10 µM, respectively.

`Cc1cc(Oc2ccc(Cn3nc4ccc(Cl)cc4c3C(=O)NS(=O)(=O)c3ccc([N+](=O)[O-])c(NCc4ccncc4)c3)cc2)cc(C)c1Cl`: the inhibition constant Ki in assay [1] is 1.36 µM; in assay [2], 0.71 µM; in assay [3], above 10 µM.

In the case of `Cc1cc(Oc2ccc(Cn3nc4ccc(Cl)cc4c3C(=O)NS(=O)(=O)c3ccc(NCc4ccco4)c([N+](=O)[O-])c3)cc2)cc(C)c1Cl`, the Ki in assay [1] was 1.3 µM; in assay [2] it was 0.57 µM; in assay [3], above 10 µM.

Regarding `Cc1cc(Oc2ccc(Cn3nc4ccc(Cl)cc4c3C(=O)NS(=O)(=O)c3ccc([N+](=O)[O-])c(NCc4cccnc4)c3)cc2)cc(C)c1Cl`, the results for the Ki in assay [1], in assay [2] and in assay [3] were 1 µM, 1.22 µM and above 10 µM, respectively.

`Cc1cc(OCCCn2nc3ccc(Cl)cc3c2C(=O)O)cc(C)c1Cl` came in with an inhibitory constant (Ki) in assay [1] above 10 µM.

`Cc1cc(Oc2ccc(Cn3nc4ccc(Cl)cc4c3C(=O)NS(=O)(=O)c3ccc(NCc4ccncc4)c([N+](=O)[O-])c3)cc2)cc(C)c1Cl`: the Ki in assay [1] was 1.65 µM; in assay [2], 1.52 µM; in assay [3], above 10 µM.

In the case of `Cc1cc(Oc2ccc(Cn3nc4ccc(Cl)cc4c3C(=O)NS(=O)(=O)c3ccc(N4CCOCC4)c([N+](=O)[O-])c3)cc2)cc(C)c1Cl`, the inhibitory constant (Ki) in assay [1] came to 1.32 µM; in assay [2], 0.53 µM; in assay [3] it was 7.99 µM.

Take `Cc1cc(Oc2ccc(Cn3nc4ccc(Cl)cc4c3C(=O)NS(=O)(=O)c3ccc(NCc4ccn(C)n4)c([N+](=O)[O-])c3)cc2)cc(C)c1Cl`: the inhibition constant Ki in assay [1] was 1.57 µM; in assay [2], 0.6 µM; in assay [3] it was 3.45 µM.

In assay [1], `Cc1cc(OCCn2nc3ccc(Cl)cc3c2C(=O)O)cc(C)c1Cl` displayed a Ki above 10 µM.

For `Cc1cc(Oc2ccc(Cn3nc4ccc(Cl)cc4c3C(=O)NS(=O)(=O)c3ccc(NCc4cccnc4)c([N+](=O)[O-])c3)cc2)cc(C)c1Cl`, the figures for the inhibition constant (Ki) in assay [1], in assay [2] and in assay [3] were 1.12 µM, 1.18 µM and 4.42 µM, respectively.

Take `Cc1cc(Oc2ccc(Cn3nc4ccc(Cl)cc4c3C(=O)NS(=O)(=O)c3ccc(NCCc4ccco4)c([N+](=O)[O-])c3)cc2)cc(C)c1Cl`: the Ki in assay [1] was 1.28 µM; in assay [2] it was 0.62 µM; in assay [3], 3.4 µM.

In assay [1], `Cc1cc(OCCCn2c(C(=O)O)nc3ccccc32)cc(C)c1Cl` registered a Ki above 10 µM.

On to `Cc1cc(Oc2ccc(Cn3nc4ccc(Cl)cc4c3C(=O)NS(=O)(=O)c3ccc([N+](=O)[O-])c(NCc4ccco4)c3)cc2)cc(C)c1Cl`, for which the inhibition constant (Ki) was 1.68 µM in assay [1], 0.96 µM in assay [2] and above 10 µM in assay [3].

As to `Cc1cc(Oc2ccc(Cn3nc4ccc(Cl)cc4c3C(=O)NS(=O)(=O)c3ccc([N+](=O)[O-])c(NCCc4cccnc4)c3)cc2)cc(C)c1Cl`, the figures for the inhibition constant (Ki) in assay [1], in assay [2] and in assay [3] were 1.46 µM, 0.46 µM and above 10 µM, respectively.

On to `Cc1cc(Oc2ccc(Cn3nc4ccc(Cl)cc4c3C(=O)NS(=O)(=O)c3ccc(NCCc4ccncc4)c([N+](=O)[O-])c3)cc2)cc(C)c1Cl`, for which the Ki is 1.77 µM in assay [1], 0.66 µM in assay [2] and above 10 µM in assay [3].
